Source: ChEMBL document CHEMBL1914417 (Bioorg Med Chem Lett, 2011)
Calls of active or inactive are those of the source. No cut-off for these calls is given here.

Key:
hERG (KCNH2) = hERG (KCNH2) (Homo sapiens, UniProt Q12809); experiment: Inhibition of human ERG at 10 uM
Cytochrome P450 1A2 = target: T1, Cytochrome P450 1A2 (Homo sapiens, UniProt P05177); experiment: Inhibition of CYP1A2; format: ADME
T1 sequence (P05177 whole entry): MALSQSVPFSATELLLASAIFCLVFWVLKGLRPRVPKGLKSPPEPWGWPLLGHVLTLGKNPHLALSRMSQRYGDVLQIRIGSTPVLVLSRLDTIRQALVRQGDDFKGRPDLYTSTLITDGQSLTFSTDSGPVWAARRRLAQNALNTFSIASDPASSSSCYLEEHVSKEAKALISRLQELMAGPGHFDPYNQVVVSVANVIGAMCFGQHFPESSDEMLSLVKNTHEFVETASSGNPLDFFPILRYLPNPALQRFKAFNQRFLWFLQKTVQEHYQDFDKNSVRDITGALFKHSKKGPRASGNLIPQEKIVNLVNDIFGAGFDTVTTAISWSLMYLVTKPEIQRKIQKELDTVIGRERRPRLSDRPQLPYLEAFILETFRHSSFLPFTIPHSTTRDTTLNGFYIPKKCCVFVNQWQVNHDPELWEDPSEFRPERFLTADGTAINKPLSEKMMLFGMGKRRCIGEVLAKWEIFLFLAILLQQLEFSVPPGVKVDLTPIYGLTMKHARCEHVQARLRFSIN

[1] = AUC in rat at 10 mg/kg, po; format: ADME, organism-based; set-up: dose 10 mg/kg, route oral; settings: plasma
Cytochrome P450 2C9 = Cytochrome P450 2C9 (Homo sapiens, UniProt P11712); experiment: Inhibition of CYP2C9; format: ADME
[2] = Half life in rat 1 mg/kg, iv and 10 mg/kg, po; format: ADME, organism-based; settings: in vivo
[3] = AUC in rat at 1 mg/kg, iv; format: ADME, organism-based; set-up: dose 1 mg/kg, route intravenous; settings: plasma
Plasma [4] = experiment: Fraction unbound in human plasma; format: ADME, cell-free
[5] = Plasma concentration in Sprague-Dawley rat at 10 mg/kg, po after 90 mins; format: ADME, organism-based; set-up: dose 10 mg/kg, route oral
[6] = Drug uptake in Sprague-Dawley rat brain at 10 mg/kg, po after 90 mins; format: ADME, organism-based; set-up: dose 10 mg/kg, route oral; settings: read-out: Drug uptake
Rattus norvegicus = experiment: Oral bioavailability in rat 10 mg/kg; format: ADME, organism-based; settings: in vivo
Cytochrome P450 2D6 = Cytochrome P450 2D6 (Homo sapiens, UniProt P10635); experiment: Inhibition of CYP2D6; format: ADME
[7] = Potentiation of NMDA receptor-induced current in hippocampal CA1 pyramidal cells at 30 uM; format: tissue-based; settings: Hippocampus
[8] = Clearance in rat at 1 mg/kg, iv and 10 mg/kg, po; format: ADME, organism-based; settings: in vivo
[9] = Volume of distribution at steady state in rat 1 mg/kg, iv and 10 mg/kg, po; format: ADME, organism-based; settings: in vivo, read-out: Vdss
Plasma [10] = experiment: Fraction unbound in rat plasma; format: ADME, cell-free
[11] = target: T2, Muscarinic acetylcholine receptor M1 (Rattus norvegicus) (UniProt P08482); experiment: Agonist activity at rat muscarinic M1 receptor expressed in CHO cells at 10 uM; format: functional, cell-based
T2 sequence (whole entry): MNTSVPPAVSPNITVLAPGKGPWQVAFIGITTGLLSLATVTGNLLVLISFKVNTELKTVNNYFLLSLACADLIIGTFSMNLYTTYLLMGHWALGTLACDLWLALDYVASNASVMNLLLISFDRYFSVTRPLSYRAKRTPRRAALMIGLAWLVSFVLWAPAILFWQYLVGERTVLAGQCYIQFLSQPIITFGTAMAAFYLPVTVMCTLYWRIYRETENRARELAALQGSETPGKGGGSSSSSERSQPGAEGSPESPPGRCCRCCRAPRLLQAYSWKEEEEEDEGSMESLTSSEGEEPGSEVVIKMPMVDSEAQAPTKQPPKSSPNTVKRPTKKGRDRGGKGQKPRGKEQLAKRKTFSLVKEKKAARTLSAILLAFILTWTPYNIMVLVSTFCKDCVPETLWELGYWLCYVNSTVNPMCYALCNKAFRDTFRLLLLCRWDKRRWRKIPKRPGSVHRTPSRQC

[12] = Ratio of AUC in brain to AUC in blood in Sprague-Dawley rat at 10 mg/kg, po after 90 mins; format: ADME, organism-based; set-up: dose 10 mg/kg, route oral; settings: read-out: BPR

Sequence of Cytochrome P450 2D6 (P10635 whole entry): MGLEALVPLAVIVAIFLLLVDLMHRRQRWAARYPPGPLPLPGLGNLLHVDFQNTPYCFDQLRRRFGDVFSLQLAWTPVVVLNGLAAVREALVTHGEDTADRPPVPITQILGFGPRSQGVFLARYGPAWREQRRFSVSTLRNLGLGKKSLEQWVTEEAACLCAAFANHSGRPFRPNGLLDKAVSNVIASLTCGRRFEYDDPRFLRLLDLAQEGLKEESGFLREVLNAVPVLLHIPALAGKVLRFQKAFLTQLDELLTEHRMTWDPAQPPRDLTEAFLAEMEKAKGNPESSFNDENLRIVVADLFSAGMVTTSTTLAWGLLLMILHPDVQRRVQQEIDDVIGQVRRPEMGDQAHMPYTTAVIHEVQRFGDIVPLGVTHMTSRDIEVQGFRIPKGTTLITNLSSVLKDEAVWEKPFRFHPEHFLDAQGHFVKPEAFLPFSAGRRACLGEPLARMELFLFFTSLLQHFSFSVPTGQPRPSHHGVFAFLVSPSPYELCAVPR
Sequence of Cytochrome P450 2C9 (P11712 whole entry): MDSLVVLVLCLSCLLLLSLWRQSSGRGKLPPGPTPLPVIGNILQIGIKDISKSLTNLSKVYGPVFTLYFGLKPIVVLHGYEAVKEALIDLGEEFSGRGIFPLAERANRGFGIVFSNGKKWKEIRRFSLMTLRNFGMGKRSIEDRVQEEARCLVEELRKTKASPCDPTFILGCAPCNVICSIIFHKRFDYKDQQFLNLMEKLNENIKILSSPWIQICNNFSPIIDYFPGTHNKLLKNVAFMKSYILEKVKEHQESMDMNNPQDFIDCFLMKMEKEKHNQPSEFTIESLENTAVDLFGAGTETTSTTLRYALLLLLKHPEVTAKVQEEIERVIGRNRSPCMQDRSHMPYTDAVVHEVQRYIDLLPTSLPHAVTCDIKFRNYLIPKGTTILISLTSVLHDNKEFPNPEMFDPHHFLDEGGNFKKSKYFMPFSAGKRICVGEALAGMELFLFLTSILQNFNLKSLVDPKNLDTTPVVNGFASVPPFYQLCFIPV
Sequence of hERG (KCNH2) (Q12809 whole entry): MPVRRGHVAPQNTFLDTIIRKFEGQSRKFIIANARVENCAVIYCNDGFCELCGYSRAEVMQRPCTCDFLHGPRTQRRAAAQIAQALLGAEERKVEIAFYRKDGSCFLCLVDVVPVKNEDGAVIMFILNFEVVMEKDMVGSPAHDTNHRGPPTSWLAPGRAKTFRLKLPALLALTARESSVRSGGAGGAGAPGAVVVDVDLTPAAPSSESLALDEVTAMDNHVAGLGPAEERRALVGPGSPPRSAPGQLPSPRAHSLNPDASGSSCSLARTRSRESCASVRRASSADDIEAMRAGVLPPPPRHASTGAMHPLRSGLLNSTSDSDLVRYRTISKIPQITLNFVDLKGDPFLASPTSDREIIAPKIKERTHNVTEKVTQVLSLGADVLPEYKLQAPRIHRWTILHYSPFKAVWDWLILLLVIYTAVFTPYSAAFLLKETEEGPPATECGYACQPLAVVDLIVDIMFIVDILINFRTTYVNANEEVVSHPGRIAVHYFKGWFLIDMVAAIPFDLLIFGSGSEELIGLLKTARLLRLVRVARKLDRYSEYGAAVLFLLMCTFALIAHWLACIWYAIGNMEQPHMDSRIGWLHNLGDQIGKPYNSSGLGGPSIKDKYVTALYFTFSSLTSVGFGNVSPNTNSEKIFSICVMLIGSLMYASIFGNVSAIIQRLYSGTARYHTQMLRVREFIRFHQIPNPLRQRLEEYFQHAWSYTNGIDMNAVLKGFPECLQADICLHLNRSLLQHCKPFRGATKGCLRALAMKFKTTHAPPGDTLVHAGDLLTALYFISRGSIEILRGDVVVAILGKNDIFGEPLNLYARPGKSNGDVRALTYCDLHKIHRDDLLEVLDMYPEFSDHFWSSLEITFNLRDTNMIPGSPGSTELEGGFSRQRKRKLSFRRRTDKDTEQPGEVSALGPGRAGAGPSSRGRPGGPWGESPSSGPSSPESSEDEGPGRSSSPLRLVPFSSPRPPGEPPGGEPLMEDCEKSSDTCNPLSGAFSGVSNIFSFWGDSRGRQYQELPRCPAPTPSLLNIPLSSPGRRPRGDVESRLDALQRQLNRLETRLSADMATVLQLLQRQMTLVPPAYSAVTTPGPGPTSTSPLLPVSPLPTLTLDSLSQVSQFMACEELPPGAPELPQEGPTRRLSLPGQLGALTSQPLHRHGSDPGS

Q: What does the source list for `CCOC(=O)N1CCC(N2CCC[C@@H](NC(=O)c3ccccc3C)C2)CC1`?
A: inhibition at 10 µM (hERG (KCNH2)): 22%; IC50 (Cytochrome P450 1A2): > 25 µM; AUC [1]: 4200 ng·h/mL; IC50 (Cytochrome P450 2C9): > 25 µM; half-life [2]: 46 min; AUC [3]: 1100 ng·h/mL; Fu (Plasma [4]): 5.8%; concentration at 1.5 h [5]: 1450 nM; concentration at 1.5 h [6]: 1890 nM; F (Rattus norvegicus): 37%; IC50 (Cytochrome P450 2D6): > 25 µM; Activity [7]: Active; clearance [8]: 14.7 mL/min/kg; Vd [9]: 0.98 L/kg; Fu (Plasma [10]): 14.9%; activation [11]: Active; Kp at 1.5 h [12]: 1.35
